Test results published in ChEMBL document CHEMBL3045068, “Effect of methomyl and oxamyl soil applications on early control of nematodes and insects” (Pest Manag Sci, 2011).
≈ marks a conversion by molar mass, not a printed value.

Columns and labels:
[1] = system: Solanum lycopersicum; assay: Phytotoxicity in Solanum lycopersicum (tomato) assessed as foliar edge burn at 200 ug/mL applied through foliar spray after 5 weeks; assay type: organism-based; conditions: in vivo, other, 840 h
[2] = system: Gossypium hirsutum; assay: Phytotoxicity in Gossypium hirsutum (cotton) assessed as concentration required to cause foliar edge burn applied through foliar spray after 3 weeks; assay type: organism-based; conditions: in vivo, other, 504 h
[3] = system: Gossypium hirsutum; assay: Phytotoxicity in Gossypium hirsutum (cotton) assessed as concentration required to cause foliar edge burn applied to soil after 4 weeks; assay type: organism-based; conditions: in vivo, other, 672 h
[4] = system: Aphis gossypii; assay: Insecticidal activity against Aphis gossypii (cotton aphid) infested cotton assessed as mortality applied through foliar spray after 5 days; assay type: functional
[5] = system: Meloidogyne incognita; assay: Nematicidal activity against second juvenile stage of Meloidogyne incognita (root-knot nematode) infected lima bean plant assessed as shoot dry weight at 1 kg ai/ha applied to soil measured during planting under green house conditions (reference value: 1.84 +/- 0.18 g); assay type: functional
[6] = system: Meloidogyne incognita; assay: Nematicidal activity against second juvenile stage of Meloidogyne incognita (root-knot nematode) infected lima bean plant assessed as shoot dry weight at 4 kg ai/ha applied to soil measured up to 14 days post planting under green house conditions (reference value: 1.84 +/- 0.18 g); assay type: functional
[7] = system: Meloidogyne incognita; assay: Nematicidal activity against second juvenile stage of Meloidogyne incognita (root-knot nematode) infected pea plant assessed as plant fresh weight at 4 kg ai/ha applied to soil measured up to 7 days post planting under green house conditions (reference value: 4.3 +/- 0.56 g); assay type: functional
[8] = system: Meloidogyne incognita; assay: Nematicidal activity against second juvenile stage of Meloidogyne incognita (root-knot nematode) infected pea plant assessed as root fresh weight at 4 kg ai/ha applied to soil measured up to 14 days post planting under green house conditions (reference value: 4.3 +/- 0.56 g); assay type: functional
[9] = system: Meloidogyne incognita; assay: Nematicidal activity against second juvenile stage of Meloidogyne incognita (root-knot nematode) infected pea plant assessed as plant fresh weight at 3 kg ai/ha applied to soil measured up to 14 days post planting under green house conditions (reference value: 4.3 +/- 0.56 g); assay type: functional
[10] = system: Meloidogyne incognita; assay: Nematicidal activity against second juvenile stage of Meloidogyne incognita (root-knot nematode) infected pea plant assessed as root dry weight at 2 kg ai/ha applied to soil measured up to 7 days post planting under green house conditions (reference value: 0.25 +/- 0.041 g); assay type: functional
[11] = system: Meloidogyne incognita; assay: Nematicidal activity against second juvenile stage of Meloidogyne incognita (root-knot nematode) infected pea plant assessed as emergence at 3 kg ai/ha applied to soil measured up to 14 days post planting under green house conditions (reference value: 75 +/- 13%); assay type: functional
[12] = system: Meloidogyne incognita; assay: Nematicidal activity against second juvenile stage of Meloidogyne incognita (root-knot nematode) infested soil containing cucumber seeds assessed as mortality applied post seed germination measured after 7 days under green house conditions; assay type: functional
[13] = system: Meloidogyne incognita; assay: Nematicidal activity against second juvenile stage of Meloidogyne incognita (root-knot nematode) assessed as mortality at 20 mg ai/L after 48 to 72 hr relative to control; assay type: functional
[14] = system: Meloidogyne incognita; assay: Nematicidal activity against second juvenile stage of Meloidogyne incognita (root-knot nematode) infected pea plant assessed as reduction in root gall index at 4 kg ai/ha applied to soil measured up to 7 days post planting under green house conditions (reference value: 9.7 +/- 0.30%); assay type: functional
[15] = system: Meloidogyne incognita; assay: Nematicidal activity against second juvenile stage of Meloidogyne incognita (root-knot nematode) infected pea plant assessed as emergence at 4 kg ai/ha applied to soil measured up to 7 days post planting under green house conditions (reference value: 75 +/- 13%); assay type: functional
[16] = system: Meloidogyne incognita; assay: Nematicidal activity against second juvenile stage of Meloidogyne incognita (root-knot nematode) infected pea plant assessed as reduction in root gall index at 3 kg ai/ha applied to soil measured up to 14 days post planting under green house conditions (reference value: 9.7 +/- 0.30%); assay type: functional
[17] = system: Phaseolus lunatus; assay: Phytotoxicity in Phaseolus lunatus (lima bean) plant assessed as plant dry weight at 3.12 kg ai/ha applied to soil measured up to 14 days under green house conditions (reference value: 1.20 +/- 0.21 g); assay type: organism-based; conditions: in vivo, other, 336 h
[18] = system: Phaseolus lunatus; assay: Phytotoxicity in Phaseolus lunatus (lima bean) plant assessed as plant dry weight at 1.12 kg ai/ha applied to soil under green house conditions (reference value: 1.20 +/- 0.21 g); assay type: organism-based; conditions: in vivo, other
[19] = system: Phaseolus lunatus; assay: Phytotoxicity in Phaseolus lunatus (lima bean) plant assessed as plant dry weight at 2.12 kg ai/ha applied to soil measured up to 7 days under green house conditions (reference value: 1.20 +/- 0.21 g); assay type: organism-based; conditions: in vivo, other, 168 h
[20] = system: Phaseolus lunatus; assay: Phytotoxicity in Phaseolus lunatus (lima bean) plant assessed as emergence at 2.12 kg ai/ha applied to soil measured up to 7 days under green house conditions (reference value: 70 +/- 16%); assay type: organism-based; conditions: in vivo, other, 168 h
[21] = system: Phaseolus lunatus; assay: Phytotoxicity in Phaseolus lunatus (lima bean) plant assessed as emergence at 1.56 kg ai/ha applied to soil measured up to 7 days under green house conditions (reference value: 70 +/- 16%); assay type: organism-based; conditions: in vivo, other, 168 h
[22] = system: Pisum sativum; assay: Phytotoxicity in Pisum sativum (pea) assessed as root dry weight at 3 kg ai/ha applied to soil measured up to 7 days post planting at 19 degC (reference value: 2 +/- 0.21 g); assay type: organism-based; conditions: lathyrus oleraceus, in vivo, other, 168 h
[23] = system: Pisum sativum; assay: Phytotoxicity in Pisum sativum (pea) assessed as root dry weight at 2 kg ai/ha applied to soil measured up to 7 days post planting at 27 degC under green house conditions (reference value: 0.33 +/- 0.075 g); assay type: organism-based; conditions: lathyrus oleraceus, in vivo, other, 168 h
[24] = system: Pisum sativum; assay: Phytotoxicity in Pisum sativum (pea) assessed as plant fresh weight at 3 kg ai/ha applied to soil measured up to 14 days post planting at 27 degC under green house conditions (reference value: 3.9 +/- 0.83 g); assay type: organism-based; conditions: lathyrus oleraceus, in vivo, other, 336 h
[25] = system: Pisum sativum; assay: Phytotoxicity in Pisum sativum (pea) assessed as emergence at 4 kg ai/ha applied to soil measured up to 7 days post planting at 27 degC under green house conditions (reference value: 70 +/- 3.3%); assay type: organism-based; conditions: lathyrus oleraceus, in vivo, other, 168 h
[26] = system: Pisum sativum; assay: Phytotoxicity in Pisum sativum (pea) assessed as emergence at 3 kg ai/ha applied to soil measured up to 7 days post planting at 27 degC under green house conditions (reference value: 70 +/- 3.3%); assay type: organism-based; conditions: lathyrus oleraceus, in vivo, other, 168 h
[27] = system: Pisum sativum; assay: Phytotoxicity in Pisum sativum (pea) assessed as emergence at 3 kg ai/ha applied to soil measured up to 14 days post planting at 27 degC under green house conditions (reference value: 70 +/- 3.3%); assay type: organism-based; conditions: lathyrus oleraceus, in vivo, other, 336 h
[28] = system: Meloidogyne incognita; assay: Nematicidal activity against second juvenile stage of Meloidogyne incognita (root-knot nematode) infected lima bean plant assessed as reduction in root gall index at 1 kg ai/ha applied to soil measured during planting under green house conditions (reference value: 7 +/- 0.27%); assay type: functional
[29] = system: Meloidogyne incognita; assay: Nematicidal activity against second juvenile stage of Meloidogyne incognita (root-knot nematode) infected lima bean plant assessed as emergence at 3 kg ai/ha applied to soil measured up to 14 days post planting under green house conditions (reference value: 83 +/- 5%); assay type: functional

CNC(=O)ON=C(C)SC [METHOMYL]
Activity [1]: Non-toxic
Activity [2]: 100 µg/mL
Activity [3]: 100 µg/mL
LC90 [4]: 54 µg/mL (≈ 333 µM)
LC50 ([4]; Aphis gossypii, foliar, 120 h): 25 µg/mL (≈ 154 µM)
Activity [5]: 1.79 g
Activity [6]: 1.02 g
Activity [7]: 5.5 g
Activity [8]: 5.5 g
Activity [9]: 5.2 g
Activity [10]: 0.34 g
Activity [11]: 63%
LC90 [12]: 69.7 µg/mL (≈ 430 µM)
LC50 ([12]; Meloidogyne incognita, Juvenile stage, 168 h): 10.2 µg/mL (≈ 62.9 µM)
mortality at 20 µg/mL [13]: 95%
Root_galling_index [14]: 0%
Activity [15]: 88%
Root_galling_index [16]: 0%
Activity [17]: 0.87 g
Activity [18]: 1.51 g
Activity [19]: 0.66 g
Activity [20]: 80%
Activity [21]: 80%
Activity [22]: 2.2 g
Activity [23]: 0.16 g
Activity [24]: 3.3 g
Activity [25]: 60%
Activity [26]: 70%
Activity [27]: 80%
Root_galling_index [28]: 0%
Activity [29]: 83%
